From patent US7595401B2, “Therapeutic compounds and their use in cancer” (Myriad Pharmaceuticals, Inc., priority 2006, dated 2009) come the findings set out here.

Usually % Inhibition stands for the drop in the measured response relative to a control, in per cent. As a reminder, the IC50 is the point on the concentration scale where inhibition reaches its midpoint. Higher therefore signals lower potency.

One experiment deals with purified human Hsp90. Put plainly: Binding Assay: fluorescence polarization with BODIPY-labeled geldanamycin. Conditions: 5 μM compound, BODIPY-GM 10 nM, Hsp90 30 nM. The gist of the method:
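Fluorescence polarization competition with BODIPY-geldanamycin (10 nM final) and human Hsp90 (30 nM final) in HEPES-KOH pH 7.3 buffer with molybdate, NP-40, DTT; 2% DMSO, overnight at room temperature. Read 485/530 nm; percent inhibition from mP normalized to DMSO controls, fluorescent-compound points excluded.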
Turning to `CC(C)N1CCC(CCn2c(Sc3cc4c(cc3Br)OCO4)nc3ncnc(N)c32)CC1` [Example 583, 8-[(6-Bromo-1,3-benzodioxol-5-yl)thio]-7-[2-(1-isopropylpiperidin-4-yl)ethyl]-7 H-purin-6-amine], the “% Inhibition at 5 μM Compound Concentration” value (“% Inhibition” below) was 55.00%.

As to `CC(C)N1CCCCC1CCn1cnc(N)c2nc(Sc3cc4c(cc3Br)OCO4)nc1-2` (centres unmarked) [Example 446, 8-[(6-Bromo-1,3-benzodioxol-5-yl)thio]-3-[2-(1-isopropylpiperidin-2-yl)ethyl]-3H-purin-6-amine], the “% Inhibition” value came out at 4%.

Turning to `COc1ccc(OC)c(Sc2nc3c(N)ncnc3n2CCc2ccc(Br)cc2)c1` [Example 71, 9-[2-(4-Bromo-phenyl)-ethyl]-8-(2,5-dimethoxy-phenylsulfanyl)-9H-purin-6-ylamine], the “% Inhibition” value came out at 41%.

Turning to `COc1ccc(Sc2nc3c(N)ncn(CCc4ccccc4)c-3n2)cc1Cl` [Example 241, 8-[(3-Chloro-4-methoxyphenyl)thio]-3-(2-phenylethyl)-3H-purin-6-amine], the “% Inhibition” value worked out at 0%.

On to `CCOc1cc(CCn2cnc(N)c3nc(Sc4cc(OC)ccc4OC)nc2-3)ccc1OC` [Example 112, 8-(2,5-dimethoxy-phenylsulfanyl)-3-[2-(3-ethoxy-4-methoxy-phenyl)-ethyl]-3H-purin-6-ylamine], for which the “% Inhibition” value was 0%.

For `Nc1ncn(CCc2ccccc2Cl)c2nc(Sc3cc4c(cc3Br)OCO4)nc1-2` [Example 54, 8-(6-bromo-benzo[1,3]dioxol-5-ylsulfanyl)-3-[2-(2-chloro-phenyl)-ethyl]-3H-purin-6-ylamine], the “% Inhibition” value was 13%.

Turning to `Nc1ncn(CC[C@H]2CCCN(C=O)C2)c2nc(Sc3cc4c(cc3Br)OCO4)nc1-2` [Example 603, (3R)-3-(2-{6-Amino-8-[(6-bromo-1,3-benzodioxol-5-yl)thio]-3 H-purin-3-yl}ethyl)piperidine-1-carbaldehyde], the “% Inhibition” value was determined as 4.00%.

With `Nc1ncn(CCc2ccccc2)c2nc(Sc3ccc4c(c3)OCO4)nc1-2` [Example 5, 8-(benzo[1,3]dioxol-5-ylsulfanyl)-3-phenethyl-3H-purin-6-ylamine], the “% Inhibition” value is reported as 8%.

Regarding `Nc1ncn(CCc2ccccc2)c2nc(Sc3ccc4ncoc4c3)nc1-2` [Example 284, 8-(1,3-Benzoxazol-6-ylthio)-3-(2-phenylethyl)-3H-purin-6-amine], the “% Inhibition” value is 3.0%.

On to `COc1ccc(C#N)cc1Sc1nc2c(N)ncn(CCc3ccccc3Cl)c-2n1` [Example 307, 3-({6-Amino-3-[2-(2-chlorophenyl)ethyl]-3H-purin-8-yl}thio)-4-methoxybenzonitrile], for which the “% Inhibition” value is on record as 40.0%.

The experiment is the same for the next values; noted with them: BODIPY-GM 10 nM, Hsp90 30 nM.
Take `CS(=O)(=O)N1CCCC(CCn2cnc(N)c3nc(Sc4cc5c(cc4Br)OCO5)nc2-3)C1` (centres unmarked) [Example 370, 8-[(6-Bromo-1,3-benzodioxol-5-yl)thio]-3-{2-[1-(methylsulfonyl)piperidin-3-yl]ethyl}-3H-purin-6-amine]: the IC50 worked out at 600 nM.

On to `Nc1ncnc2c1nc(Sc1cc3c(cc1Br)OCO3)n2CC1(c2ccc(Cl)cc2)CC1` [Example 221, 8-(6-Bromo-benzo[1,3]dioxol-5-ylsulfanyl)-9-[1-(4-chloro-phenyl)-cyclopropylmethyl]-9H-purin-6-ylamine], for which the half-inhibitory concentration (IC50) was > 9000 nM.

As for `Nc1ncnc2c1nc(Sc1cc3c(cc1Br)OCO3)n2CCc1cccc(F)c1` [Example 109, 8-(6-Bromo-benzo[1,3]dioxol-5-ylsulfanyl)-9-[2-(3-fluoro-phenyl)-ethyl]-9H-purin-6-ylamine], the IC50 was determined as 300 nM.

On to `CC(C)CN1CCC(CCn2c(Sc3cc4c(cc3Br)OCO4)nc3c(N)ncnc32)CC1` [Example 453, 8-[(6-Bromo-1,3-benzodioxol-5-yl)thio]-9-[2-(1-isobutylpiperidin-4-yl)ethyl]-9H-purin-6-amine], for which the IC50 was 700 nM.

In the case of `CC1=NNC(=O)C1CCn1c(Sc2cc3c(cc2Br)OCO3)nc2c(N)ncnc21` (centres unmarked) [Example 406, 4-(2-{6-Amino-8-[(6-bromo-1,3-benzodioxol-5-yl)thio]-9H-purin-9-yl}ethyl)-5-methyl-2,4-dihydro-3H-pyrazol-3-one], the IC50 is > 25000 nM.

On to `COc1ccc(OC)c(Sc2nc3c(N)ncnc3n2CCc2ccc(Br)cc2)c1` [Example 71, 9-[2-(4-Bromo-phenyl)-ethyl]-8-(2,5-dimethoxy-phenylsulfanyl)-9H-purin-6-ylamine], for which the IC50 is > 25000 nM.

Consider `Nc1ncnc2c1nc(Sc1cc3c(cc1Br)OCO3)n2CCC1CCN(C(=O)CO)CC1` [Example 760, 2-[4-(2-{6-Amino-8-[(6-bromo-1,3-benzodioxol-5-yl)thio]-9H-purin-9-yl}ethyl)piperidin-1-yl]-2-oxoethanol], for which the IC50 came to 325 nM.

As to `CC(C)(C)OC(=O)N[C@H]1CC[C@H](CCn2c(Sc3cc4c(cc3Br)OCO4)nc3c(N)ncnc32)CC1` [Example 455, tert-Butyl [trans-4-(2-{6-amino-8-[(6-bromo-1,3-benzodioxol-5-yl)thio]-9H-purin-9-yl}ethyl)cyclohexyl]carbamate], the IC50 came to 60 nM.

With `COc1ccc([N+](=O)[O-])cc1Sc1nc2c(N)ncnc2n1CCC1CCN(C=O)CC1` [Example 536, 4-(2-{6-Amino-8-[(2-methoxy-5-nitrophenyl)thio]-9 H-purin-9-yl}ethyl)piperidine-1-carbaldehyde], the IC50 is > 5000 nM.

In the case of `COc1ccc(Sc2nc3c(N)ncnc3n2CCC2CCN(C(C)=O)CC2)cc1F` [Example 567, 9-[2-(1-Acetylpiperidin-4-yl)ethyl]-8-[(3-fluoro-4-methoxyphenyl)thio]-9 H-purin-6-amine], the IC50 was > 5000 nM.

With `CS(=O)(=O)NC(CCn1c(Sc2cc3c(cc2Br)OCO3)nc2c(N)ncnc21)C1CC1` (centres unmarked) [Example 674, N-(3-{6-Amino-8-[(6-bromo-1,3-benzodioxol-5-yl)thio]-9H-purin-9-yl}-1-cyclopropylpropyl)methanesulfonamide], the IC50 turned out to be 80 nM.

In the case of `N#Cc1cc2c(cc1Sc1nc3c(N)ncnc3n1CCc1ccccc1)OCO2` [Example 320, 6-{[6-Amino-9-(2-phenylethyl)-9H-purin-8-yl]thio}-1,3-benzodioxole-5-carbonitrile], the IC50 came out at 240 nM.

As for `CC(C)(C)OC(=O)N1CCCC(CCCn2c(Sc3cc4c(cc3Br)OCO4)nc3c(N)ncnc32)C1` (centres unmarked) [Example 637, tert-Butyl 3-(3-{6-amino-8-[(6-bromo-1,3-benzodioxol-5-yl)thio]-9 H-purin-9-yl}propyl)piperidine-1-carboxylate], the IC50 was > 25000 nM.

`C[C@H](NC(=O)OC(C)(C)C)C(=O)N1CCC(CCn2c(Sc3nc4cccc(Cl)c4s3)nc3c(N)ncnc32)CC1` [Example 773, tert-Butyl {(1S)-2-[4-(2-{6-amino-8-[(7-chloro-1,3-benzothiazol-2-yl)thio]-9H-purin-9-yl}ethyl)piperidin-1-yl]-1-methyl-2-oxoethyl}carbamate] showed an IC50 of 390 nM.

`COc1ccc(CCn2c(Sc3cc4c(cc3Br)OCO4)nc3c(N)ncnc32)cc1OC` [Example 296, 8-[(6-Bromo-1,3-benzodioxol-5-yl)thio]-9-[2-(3,4-dimethoxyphenyl)ethyl]-9H-purin-6-amine] registered an IC50 of 350 nM.

For `CCn1nnnc1N1CCC(CCn2c(Sc3cc4c(cc3Br)OCO4)nc3c(N)ncnc32)CC1` [Example 610, 8-[(6-Bromo-1,3-benzodioxol-5-yl)thio]-9-{2-[1-(1-ethyl-1 H-tetrazol-5-yl)piperidin-4-yl]ethyl}-9 H-purin-6-amine], the IC50 was determined as 88 nM.
